Data from US8394776B2, “Use of ursolic acid saponin,oleanolic acid saponin in preparation of increasing leucocytes and/or platelet medicine” (Chengdu Di'Ao Jiuhong Pharmaceutical Factor, priority 2007, dated 2013).

Legend:
[1] = system: bone marrow mononuclear cell (BMMNC); test: Monocytic proliferation in bone marrow of mice cultured in vitro (SRB method); assay type: cell-based, KunMing mice; conditions: 1 μg/ml; cultured 5 days; versus blank control
Excerpt: 15-20 KunMing mice (purchased from Laboratory Animal Center of Zhengzhou University, Henan) of either sex were killed by cervical vertebral dislocation. Bilateral thighbones were isolated and caput femoris was cut off. The marrow was washed repeatedly with serum-free RPMI1640 (Gibco Corp.), the wash solution containing marrow cells was collected, sucked and blew repeatedly with a pipette to make the cells disperse. After standing for a moment, the supernatant was sucked up and centrifugated at 100 g for 3 min to collect the cell pellet. The cells were resuspended in a culture media and brought to a volume of 5 ml. The cell suspension was added to the upper layer of a centrifugal tube containing 5 ml of a lymphocyte separation medium of mice and centrifugated at 400 g for 30 min. The milk-white bone marrow mononuclear cell (BMMNC) layer in the middle of the interface was collected and washed with serum-free medium RPMI1640 for three times to obtain a BMMNC suspension, which was inoculated into a 96-well plate at forty thousand per well after counting. Positive drugs rhG-CSF (recombinant granulocyte colony-stimulating factor, manufactured by QI LU Pharmaceutical Co., LTD., Shandong) or test samples of different concentrations were added, and meanwhile a blank control group without drug was established. They were cultured in a 5% CO2 incubator at 37 for 5 days. Cell proliferation was measured by a conventional SRB (Sigma) method in which OD at 490 nm was measured after being dyed with SRB. The growth rates of cell proliferation after drug treatment were calculated (Growth rate of cell proliferation=experimental group-blank control group/blank control group*100%).

[2] = system: leukocytes (WBC); test: Cyclophosphamide-induced leukopenia in mice: leukocytes (WBC); assay type: in vivo, Kunming mice; conditions: 0.8 mg/kg; for effect in increasing leukocytes (in words) / leukocytes, Day 1 after modeling / leukocytes, Day 5 after modeling: Experimental Example 3
Method: (§1) Further, in vivo experiments were carried out on the compounds involved in the present invention using animal models of cyclophosphamide-induced leukopenia in mice. Experimental methods are briefed as follows: Healthy Kunming mice, of which half were male and the other half were female, were divided into groups, each group incuding 18 mice, and those mice weighing 18-22 g were selected and divided into groups randomly according to their body weights. Each group was given a different drug, wherein the negative control group and model control group were given physiological saline of the same volume, and the positive control group was treated with granulocyte colony-stimulating factors 40 μg/kg through subcutaneous injection (injection volume: 0.1 ml/10 g). After administration for 3 days, except the negative control group, other treatment groups were treated with 100 mg/kg cyclophosphamide (CY) through lumbar injection once a day for three days to cause a decrease of leukocytes in mice. A drop of blood (20 μl) was taken from posterior orbital venous plexus to detect the hemogram to observe the situation of leukocytes and platelets on day 1, day 3 and/or day 5 after the final lumbar injection of cyclophosphamide (i.e day 1, day 3 and/or day 5 after modeling) (Note: Each treatment group was administrated incessantly). The mice were killed on day 5 after the final lumbar injection of cyclophosphamide (i.e day 5 after modeling), and the leukocytes (WBC) and platelets (PLT) of the hemogram index were counted.
This experiment mainly studies the effect of G-1, G-6 and G-8 of ursolic acid saponin in increasing leukocytes, and compares the therapeutic effects of aglycon of ursolic acid and oleanolic acid and of the compound G-22 which has been disclosed by a patent.
(§2) The purpose of this experiment is to study the effect of G-1, G-3, G-11 and G-12 of ursolic acid saponin and oleanolic acid saponin in increasing platelets, and to observe whether G-11 and G-12 of oleanolic acid saponin have an effect in increasing leukocytes.

[3] = system: platelets (PLT); test: Cyclophosphamide-induced leukopenia in mice: platelets (PLT); assay type: in vivo, Kunming mice; conditions: Experimental Example 3, 0.8 mg/kg; for difference in increasing platelets compared with G-22 (in words): day 5 after modeling
Method: as §1, §2

[4] = system: WBC; test: 60Co-γ-induced leukopenia in mice: WBC; assay type: in vivo, Kunming mice
Excerpt: In order to illustrate the present invention in detail, with a model induced by ^60Co-γ rays, the effects of G-1 and G-22 on leukocytes of chemotherapy-induced-leukopenia mice were compared. The specific operation and the results are as follows.
Healthy Kunming mice, of which half were male and the other half were female, were divided into 6 groups randomly, with 17-18 in each group. Blood was taken from caudal vein to determine the normal hemogram (leucocyte, erythrocyte, platelet and hemoglobin), and adjustments were made according to body weights and hemogram results. The normal control group and model group were given isometric physiological saline once a day for 7 days, and then the post-radiation hemogram was determined. Except the normal control group, other groups were each subjected to a whole body exposure to ^60Co-γ rays at a total dose of 3.0 Gy to prepare the models of leukopenia in mice, followed by further administration for 14 days. The G-CSF group was adminitrated through subcutaneous injection for 5 days from the irradiation day on and the hemogram was determined by taking blood respectively on day 3, day 7 and day 14 after irradiation.

[5] = 0.80 mg/kg i.g., 3.0 Gy whole body

Molecule: CC1CCC2(C(=O)O)CCC3(C)C(=CCC4C5(C)CCC(OC6OC(CO)C(O)C(O)C6O)C(C)(C)C5CCC43C)C2C1C [Sample G-7, 3-O-(β-D-glucopyranosyl) ursolic acid]
- Growth Rate of Proliferation %, 1 μg/ml [1]: 23.7%

Molecule: CC1(C)CC[C@]2(C(=O)O[C@@H]3O[C@H](CO)[C@@H](O)[C@H](O)[C@H]3O)CC[C@]3(C)C(=CC[C@@H]4[C@@]5(C)CC[C@H](O[C@@H]6O[C@H](CO)[C@@H](O)[C@H](O)[C@H]6O)C(C)(C)[C@@H]5CC[C@]43C)[C@@H]2C1 [Sample G-12, 3-O-(β-D-glucopyranosyl) oleanolic acid-28-O-(β-D-glucopyranosyl) ester]
- Growth Rate of Proliferation %, 1 μg/ml [1]: 25.4%
- effect in increasing leukocytes (in words) [2]: obvious effect in increasing leukocytes at day 1 after modeling
- leukocytes, Day 1 after modeling [2]: 1.01 ± 0.55
- leukocytes, Day 5 after modeling [2]: 5.48 ± 4.39
- effect in increasing platelets (in words) [3]: effect in increasing platelets is obvious on day 1 and day 5
- platelets, Day 1 after modelng [3]: 456.88 ± 77.20
- platelets, Day 5 after modeling [3]: 390.86 ± 203.71**★★
- difference in increasing platelets compared with G-22 (in words) [3]: significant difference on day 5 compared with G-22

Molecule: ursolic acid-28-O-(α-L-arabopyranosyl) ester [Sample G-5]
- Growth Rate of Proliferation %, 1 μg/ml [1]: 20.1%

Molecule: C[C@H]1[C@H](C)CC[C@]2(C(=O)O)CC[C@]3(C)C(=CC[C@@H]4[C@@]5(C)CC[C@H](O[C@@H]6O[C@@H](C)[C@H](O)[C@@H](O)[C@H]6O)C(C)(C)[C@@H]5CC[C@]43C)[C@H]12 [Sample G-9, 3-O-(α-L-rhamnopyranosyl) ursolic acid]
- Growth Rate of Proliferation %, 1 μg/ml [1]: 23.4%

Molecule: 3-O-(β-D-glucopyranosyl) oleanolic acid [Sample G-13]
- Growth Rate of Proliferation %, 1 μg/ml [1]: 21.6%

Molecule: CC1CCC2(C(=O)OC3OC(C)C(O)C(O)C3O)CCC3(C)C(=CCC4C5(C)CCC(OC6OC(C)C(O)C(O)C6O)C(C)(C)C5CCC43C)C2C1C [Sample G-2, 3-O-(α-L-rhamnopyranosyl) ursolic acid-28-O-(α-L-rhamnopyranosyl) ester]
- Growth Rate of Proliferation %, 1 μg/ml [1]: 19.9%

Molecule: C[C@@H]1CC[C@]2(C(=O)O[C@@H]3O[C@H](CO)[C@@H](O)[C@H](O)[C@H]3O)CC[C@]3(C)C(=CC[C@@H]4[C@@]5(C)CC[C@H](O[C@@H]6OC[C@H](O)[C@H](O)[C@H]6O)C(C)(C)[C@@H]5CC[C@]43C)[C@@H]2[C@]1(C)O [Sample G-22, 3-O-(α-L-arabopyranosyl)-19-hydroxy-ursolic acid-28-O-(β-D-glucopyranosyl) ester, reference compound]
- Growth Rate of Proliferation %, 1 μg/ml [1]: 15.2%
- leukocytes (WBC), Day 3 after modeling ([2]; Experimental Example 2): 5.17 ± 1.77
- leukocytes (WBC), Day 5 after modeling ([2]; Experimental Example 2): 11.87 ± 9.53
- leukocytes (WBC), Day1 after modeling ([2]; Experimental Example 2, CY 100 mg/kg x 3 days): 1.08 ± 0.34Δ
- leukocytes, Day 1 after modeling [2]: 0.92 ± 0.28
- leukocytes, Day 5 after modeling [2]: 8.81 ± 6.44
- platelets, Day 1 after modelng [3]: 491.36 ± 126.28
- platelets, Day 5 after modeling [3]: 210.00 ± 119.38
- effect on leucocyte count of leukopenia mice (in words) ([4]; 0.80 mg/kg gastric perfusion, versus model group, day 7 and day 14 after irradiation): no evident effect
- WBC, 1 week after administration ([4]; 0.80 mg/kg i.g. once a day for 7 days, before irradiation): 9.50 ± 3.17 109/L
- WBC, Day 3 after irradiation [4, 5]: 2.21 ± 0.92 109/L
- WBC, Day 7 after irradiation [4, 5]: 4.08 ± 1.50 109/L
- WBC, Day 14 after irradiation [4, 5]: 5.44 ± 1.13 109/L
- WBC, Normal ([4]; normal hemogram before administration (baseline), 0.80 mg/kg i.g. group): 8.56 ± 2.43 109/L

Molecule: CC1(C)CCC2(C(=O)OC3OC(COC4OC(CO)C(O)C(O)C4O)C(O)C(O)C3O)CCC3(C)C(=CCC4C5(C)CCC(O)C(C)(C)C5CCC43C)C2C1 (stereo not drawn) [Sample G-18, oleanolic acid-28-O-(β-gentiobiosyl) ester]
- Growth Rate of Proliferation %, 1 μg/ml [1]: 19.0%

Molecule: CC1(C)CCC2(C(=O)O)CCC3(C)C(=CCC4C5(C)CCC(OC6OC(CO)C(O)C(O)C6O)C(C)(C)C5CCC43C)C2C1 [Sample G-14, 3-O-(β-D-galactopyranosyl) oleanolic acid]
- Growth Rate of Proliferation %, 1 μg/ml [1]: 19.9%

Molecule: CC1(C)CC[C@]2(C(=O)O)CC[C@]3(C)C(=CC[C@@H]4[C@@]5(C)CC[C@H](O[C@@H]6O[C@H](C(=O)O)[C@@H](O)[C@H](O)[C@H]6O)C(C)(C)[C@@H]5CC[C@]43C)[C@@H]2C1 [Sample G-19, 3-O-(β-D-glucuronopyranosyl) oleanolic acid]
- Growth Rate of Proliferation %, 1 μg/ml [1]: 20.9%

Molecule: CC1CCC2(C(=O)OC3OC(CO)C(OC4OC(CO)C(O)C(O)C4O)C(O)C3O)CCC3(C)C(=CCC4C5(C)CCC(OC6OCC(O)C(O)C6O)C(C)(C)C5CCC43C)C2C1C [Sample G-4, 3-O-(α-L-arabopyranosyl) ursolic acid-28-O-(β-cellobiosyl) ester]
- Growth Rate of Proliferation %, 1 μg/ml [1]: 18.0%

Molecule: CC1(C)CC[C@]2(C(=O)O[C@@H]3OC[C@H](O)[C@H](O)[C@H]3O)CC[C@]3(C)C(=CC[C@@H]4[C@@]5(C)CC[C@H](O[C@@H]6OC[C@H](O)[C@H](O)[C@H]6O)C(C)(C)[C@@H]5CC[C@]43C)[C@@H]2C1 [Sample G-11, 3-O-(α-L-arabopyranosyl) oleanolic acid-28-O-(α-L-arabopyranosyl) ester]
- Growth Rate of Proliferation %, 1 μg/ml [1]: 26.8%
- effect in increasing leukocytes (in words) [2]: obvious effect in increasing leukocytes at day 1 after modeling
- leukocytes, Day 1 after modeling [2]: 0.94 ± 0.77
- leukocytes, Day 5 after modeling [2]: 7.55 ± 4.28
- effect in increasing platelets (in words) [3]: effect in increasing platelets is obvious on day 1 and day 5
- platelets, Day 1 after modelng [3]: 465.00 ± 99.28
- platelets, Day 5 after modeling [3]: 385.73 ± 198.30**★
- difference in increasing platelets compared with G-22 (in words) [3]: significant difference on day 5 compared with G-22

Molecule: CC1(C)CC[C@]2(C(=O)O[C@@H]3O[C@H](CO)[C@@H](O)[C@H](O)[C@H]3O)CC[C@]3(C)C(=CC[C@@H]4[C@@]5(C)CC[C@H](O)C(C)(C)[C@@H]5CC[C@]43C)[C@@H]2C1 [Sample G-17, oleanolic acid-28-O-(β-D-glucopyranosyl) ester]
- Growth Rate of Proliferation %, 1 μg/ml [1]: 20.6%

Molecule: CC1(C)CC[C@]2(C(=O)O)CC[C@]3(C)C(=CC[C@@H]4[C@@]5(C)CC[C@H](O[C@@H]6OC[C@@H](O)[C@H](O)[C@H]6O)C(C)(C)[C@@H]5CC[C@]43C)[C@@H]2C1 [Sample G-15, 3-O-(β-D-xylopyranosyl) oleanolic acid]
- Growth Rate of Proliferation %, 1 μg/ml [1]: 20.6%

Molecule: CC1CCC2(C(=O)O)CCC3(C)C(=CCC4C5(C)CCC(OC6OC(CO)C(O)C(O)C6O)C(C)(C)C5CCC43C)C2C1C [Sample G-10, 3-O-(β-D-galactopyranosyl) ursolic acid]
- Growth Rate of Proliferation %, 1 μg/ml [1]: 24.2%

Molecule: CC1(C)CC[C@]2(C(=O)O)CC[C@]3(C)C(=CC[C@@H]4[C@@]5(C)CC[C@H](O[C@@H]6OC[C@@H](O)[C@@H](O)[C@@H]6O)C(C)(C)[C@@H]5CC[C@]43C)[C@@H]2C1 [Sample G-16, 3-O-(α-L-arabopyranosyl) oleanolic acid]
- Growth Rate of Proliferation %, 1 μg/ml [1]: 21.6%
